Measured values from PMC7070908, “Structure-Guided Identification of Black Cohosh (Actaea racemosa) Triterpenoids with In Vitro Activity against Multiple Myeloma” (Molecules, 2020).
In brackets after ≈: the same amount, converted by molar mass. Several values for one entry are separate records, joined by “and”; a condition that tells them apart may be missing. Equal values may be shown once.

Tests used:
MCF7 breast cancer cells = test system: MCF7 breast cancer cells; set-up: method as in PMID 14758092; details: incubation times of 96 h; cited from earlier work
[1] = test system: NCI-H929 myeloma cell line; test: Cytotoxicity, flow cytometry (AnnexinV/propidium iodide negativity), NCI-H929; type: cell-based, human; details: for activity on NCI-H929 (in words): up to 37.5 µM
Description: (§1) Induction of apoptosis was measured in myeloma cell lines NCI-H929, OPM-2, and U266 as well as in peripheral blood mononuclear cells (PBMCs) of healthy donors by flow cytometry using established protocols thereby staining the cells with AnnexinV-fluorescein isothiocyanate and propidium iodide. Bortezomib (Eubio, Vienna, Austria) was used as positive control. Cell lines were purchased from DSMZ (Braunschweig, Germany) and routinely fingerprinted and tested for mycoplasma negativity. All cells (cell lines and PBMC) were grown in RPMI-1640 medium (Life Technologies, Paisley, UK) supplemented with 10% fetal calf serum (FCS; PAA, Linz, Austria), L-glutamine 100 µg/mL, and penicillin-streptomycin 100 U/mL. PBMCs from healthy donors were used after obtaining written informed consent at the University Hospital Salzburg (ethics committee approval 415-E/1287/6-2011). Cells were subjected to Ficoll separation (Ficoll PaqueTM) and incubated in RPMI-1640 Media with supplements as above. In brief, 0.5 × 10^6 myeloma cells/mL or similar numbers of PMBCs were incubated for 24 h and 48 h with or without the tested compounds dissolved in dimethyl sulfoxide at different concentrations. At least three analyses in triplicates were performed for each cell line and a solvent control was always included. As a positive control, the proteasome inhibitor bortezomib (BTZ) was used at concentrations of 10 and 5 nM. The extent of non-apoptotic cells (AnnexinV/propidium iodide negativity) was calculated as percentage of viable cells in respect to the untreated control. Data are shown as mean percentage of viable cells and standard error of the mean (SEM) (error bars).

OPM-2 myeloma cell line = test: Cytotoxicity, flow cytometry (AnnexinV/propidium iodide negativity), OPM-2; type: cell-based, human; details: for activity on OPM-2 (in words): up to 37.5 µM
Description: as §1

U266 myeloma cell line = test: Cytotoxicity, flow cytometry (AnnexinV/propidium iodide negativity), U266; type: cell-based, human; details: for activity on U266 (in words): up to 37.5 µM
Description: as §1

[2] = test system: peripheral blood mononuclear cells (PBMCs) of healthy donors; test: Cytotoxicity, flow cytometry (AnnexinV/propidium iodide negativity), PBMC of healthy donors; type: cell-based, human
Description: as §1

MCF7 cells = test system: MCF7 cells; set-up: method as in PMID 20564500; details: 48 h of incubation; cited from earlier work
[3] = test system: doxorubicin-resistant-MCF7 (R-MCF7) cells; set-up: method as in PMID 20564500; details: doxorubicin-resistant MCF7, 48 h of incubation; cited from earlier work
[4] = 12.5 µM, 24 h, second round (Table 3)
[5] = 25 µM, 24 h, second round (Table 3)
[6] = 37.5 µM, 24 h, second round (Table 3)
[7] = 25 µM, 24 h, % of untreated control, mean ± SEM (Table 1)
[8] = 25 µM, 48 h, % of untreated control, mean ± SEM (Table 2)
[9] = 50 µM, 24 h, % of untreated control, mean ± SEM (Table 1)

Row | Structure (SMILES) | MM Cells % Alive NCI-H929 [1, 4] [%] | MM Cells % Alive NCI-H929 [1, 5] [%] | MM Cells % Alive NCI-H929 [1, 6] [%] | activity on NCI-H929 (in words) ([1]; 24 h) | MM Cells % Alive OPM-2 (OPM-2 myeloma cell line; [4]) [%] | MM Cells % Alive OPM-2 (OPM-2 myeloma cell line; [5]) [%] | MM Cells % Alive OPM-2 (OPM-2 myeloma cell line; [6]) [%] | activity on OPM-2 (in words) (OPM-2 myeloma cell line; 24 h) | MM Cells % Alive U266 (U266 myeloma cell line; [4]) [%] | MM Cells % Alive U266 (U266 myeloma cell line; [5]) [%] | MM Cells % Alive U266 (U266 myeloma cell line; [6]) [%] | activity on U266 (in words) (U266 myeloma cell line; 24 h) | PBMC % Alive [2, 4] [%] | PBMC % Alive [2, 5] [%] | PBMC % Alive [2, 6] [%] | further results
1 | CC(=O)O[C@@H]1C[C@@]23C[C@@]24CC[C@H](O[C@@H]2OC[C@@H](O)[C@H](O)[C@H]2O)C(C)(C)[C@@H]4CC[C@H]3[C@]2(C)C[C@@H]3O[C@@]4(C[C@@H](C)[C@@H]3[C@@]12C)OC[C@@]1(C)O[C@@H]41 [23-epi-26-deoxyactein] |  |  |  |  |  |  |  |  |  |  |  |  |  |  |  | IC50 growth inhibition of MCF7 breast cancer cells (MCF7 breast cancer cells): 21 µg/mL
2 | CC1CC2OC3(OC2C(C)(C)O)C1C1(C)CCC24CC25CCC(OC2OCC(O)C(O)C2O)C(C)(C)C5CCC4C1(C)C3O [Compound 5, cimigenol-3-O-α-L-arabinopyranoside] | 98.8 ± 0.9 | 97.0 ± 1.2 | 96.3 ± 1.3 | no activity | 99.8 ± 2.0 | 103.3 ± 1.4 | 103.5 ± 1.3 | no activity | 95.0 ± 3.1 | 95.8 ± 2.8 | 93.5 ± 3.5 | no activity |  |  |  | 
3 | C=C(C)C1OC23OC1CC(C)C2C1(C)CCC24CC25CCC(OC2OCC(O)C(O)C2O)C(C)(C)C5CCC4C1(C)C3O [Compound 9, 25-anhydrocimigenol-3-O-α-L-arabinopyranoside] | 96.0 ±1.0 | 92.8 ± 1.7 | 92.0 ± 1.5 | no effect | 95.8 ± 2.4 | 100.0 ± 1.9 | 104.0 ± 4.7 | no effect | 101.5 ± 5.1 | 101.8 ± 4.3 | 101.3 ± 3.3 | no effect |  |  |  | 
4 | COC(C)(C)C1OC23OC1CC(C)C2C1(C)CCC24CC25CCC(OC2OCC(O)C(O)C2O)C(C)(C)C5CCC4C1(C)C3O [Compound 8, 25-O-methyl-cimigenol-3-O-β-D-xylopyranoside] | 84.8 ± 5.0 | 31.3 ± 6.6 | 5.0 ± 1.7 |  | 97.8 ± 2.1 | 84.3 ± 4.5 | 27.0 ± 9.4 |  | 102.0 ± 3.0 | 97.5 ± 3.8 | 81.0 ± 11.9 |  | 104.3 ± 0.3 | 96.3 ± 1.7 | 64.3 ± 8.0 | IC50 NCI-H929 ([1]; incubation for 24 h): 14.2 µg/mL (≈ 22.4 µM); IC50 OPM-2 (OPM-2 myeloma cell line; incubation for 24 h): 20.7 µg/mL (≈ 32.6 µM); IC50 U266 (U266 myeloma cell line; incubation for 24 h): 31.1 µg/mL (≈ 49 µM); IC50 PBMC ([2]; incubation for 24 h): 26.0 µg/mL (≈ 41 µM)
5 | CC(=O)OC(C)(C)C1OC23OC1CC(C)C2C1(C)CCC24CC25CCC(OC2OCC(O)C(O)C2O)C(C)(C)C5CCC4C1(C)C3O [Compound 3, 25-O-acetylcimigenol-3-O-α-L-arabinopyranoside] | 93.3 ± 1.8 | 59.5 ± 7.8 | 11.8 ± 4.3 |  | 99.5 ± 2.0 | 88.8 ± 1.8 | 70.8 ± 11.5 |  | 95.0 ± 2.4 | 77.8 ± 4.6 | 48.0 ± 7.4 |  | 101.7 ± 0.3 | 98.3 ± 2.0 | 58.7 ± 12.7 | MM Cells % Alive NCI-H929 [1, 7]: 52.9 ± 7.1%; MM Cells % Alive NCI-H929 [1, 8]: 18.9 ± 3.3%; MM Cells % Alive NCI-H929 [1, 9]: 10% and 10.3 ± 2.8%; IC50 ([1]; Homo sapiens, NCI-H929, 24 h, incubation for 24 h): 18.1 µg/mL (≈ 27.3 µM); MM Cells % Alive OPM-2 (OPM-2 myeloma cell line; [7]): 63.8 ± 12%; MM Cells % Alive OPM-2 (OPM-2 myeloma cell line; [8]): 43.4 ± 9.3%; MM Cells % Alive OPM-2 (OPM-2 myeloma cell line; [9]): 20% and 19.7 ± 5.7%; IC50 (OPM-2 myeloma cell line; Homo sapiens, OPM-2, 24 h, incubation for 24 h): > 37.5 µg/mL; IC50 MCF7 (MCF7 cells): 4.0 µg/mL (≈ 6.03 µM); MM Cells % Alive U266 (U266 myeloma cell line; [7]): 89.3 ± 3.2%; MM Cells % Alive U266 (U266 myeloma cell line; [8]): 66.8 ± 9.5%; MM Cells % Alive U266 (U266 myeloma cell line; [9]): 13% and 12.9 ± 3.5%; IC50 (U266 myeloma cell line; Homo sapiens, U-266, 24 h, incubation for 24 h): 24.7 µg/mL (≈ 37.3 µM); PBMC % Alive [2, 7]: 86.5 ± 2.7%; PBMC % Alive [2, 8]: 76.2 ± 1.8%; PBMC % Alive [2, 9]: 6.1 ± 1.5%; PBMC % Alive ([2]; 50 µM, 48 h, % of untreated control, mean ± SEM (Table 2)): 4.6 ± 0.1%; IC50 ([2]; Homo sapiens, PBMC, 24 h, incubation for 24 h): 25.9 µg/mL (≈ 39.1 µM); IC50 R-MCF7 [3]: 5.3 µg/mL (≈ 8 µM)
